Assay results published in patent US20110178104A1, “Anti-Heparin Compounds” (POLYMEDIX INC., priority 2010, published 2011).
Several values for one entry are separate records, joined by “and”; a condition that tells them apart may be missing. Identical values can stand only once.

Tests used:
fondaparinux = experiment: FXa amidolytic assay (Example 10), fondaparinux; conditions: read-out: Fondap FXa EC50; fondaparinux 0.02 μg/mL; human antithrombin, bovine Factor Xa
Method: (§1) Two μl of test agent are added (range between 0.01 and 23 ug/ml) and incubated for 5 minutes at 23° C. Bovine Factor Xa was added to a final concentration of 0.636 nkat/mL and incubated for a further 10 minutes at 23° C.

enoxaparin = experiment: FXa amidolytic assay (Example 10), enoxaparin; conditions: read-out: Enox FXa EC50; enoxaparin 0.1 ug/ml; human antithrombin, bovine Factor Xa
Method: as §1

tinzaparin = experiment: FXa amidolytic assay (Example 10), tinzaparin; conditions: read-out: Tinzap FXa EC50; tinzaparin 0.1 ug/ml; human antithrombin, bovine Factor Xa
Method: as §1

Unfractionated heparin = experiment: aPTT clotting assay, UFH 0.4 U/mL in plasma (Example 10); format: biochemical; conditions: unfractionated heparin 0.4 U/mL in plasma; aPTT clotting
Method: aPTT clotting Assay: Unfractionated heparin was mixed with plasma at a final concentration of 0.4 U/mL (or concentration which increases aPTT time to between 120 and 300 seconds). […] The ACL Elite Hemostasis analyzer (Beckman Coulter™) was used to add aPTT reagent (HemosIL SynthASil) to supplemented plasma. Clotting was initiated by addition of CaCl2 and time to clot was recorded.

SMILES | EC50 (fondaparinux) | EC50 (enoxaparin) | EC50 (tinzaparin) | EC50 (Unfractionated heparin)
COc1ccc(NC(=O)[C@H](CCCNC(=N)N)NC(=O)c2cc(NC(=O)[C@H](CCCNC(=N)N)NC(=O)c3cc(NC(=O)[C@H](C)NC(=O)CCCCNC(=N)N)ccc3OC)ccc2OC)cc1C(N)=O [Compound 224] | 4450 nM | 1020 nM | 792 nM | 7230 nM
COc1cc(OC)c(C(=O)N[C@H]2CC[C@H](NC(=O)c3cc(C(=O)NCCN(C)C)c(OCCCCCN)cc3OCCCCCN)CC2)cc1C(=O)NCCN(C)C [Compound 228] | > 10000 nM | 281 nM | > 5000 nM | 1110 nM
[2H]C(C([2H])C([2H])([2H])CN)[C@H](N)C(=O)Nc1ccc(OC)c(C(=O)N[C@@H](CCCCN)C(=O)Nc2ccc(OC)c(C(=O)N[C@@H](CCCCN)C(=O)Nc3ccc(OC)c(C(=O)N[C@@H](CCCCN)C(=O)Nc4ccc(OC)c(C(N)=O)c4)c3)c2)c1 (stereo partly drawn) [Compound 230] | 4880 nM | 252 nM | 147 nM | 2780 nM
COc1ccc(NC(=O)[C@H](CCCCN)NC(=O)c2cc(NC(=O)[C@H](CCCCN)NC(=O)c3cc(NC(=O)[C@H](CCCCN)NC(=O)c4cc(NC(=O)[C@H](N)CCCCN)ccc4OC)ccc3OC)ccc2OC)cc1C(N)=O [Compound 231] | 3560 nM | 192 nM | 99 nM | 2310 nM
COc1ccc(NC(=O)[C@H](C)NC(=O)c2cc(NC(=O)[C@H](CCCCN)NC(=O)c3cc(NC(=O)[C@H](CCCCN)NC(=O)c4cc(NC(=O)[C@@H](N)CCCCN)ccc4OC)ccc3OC)ccc2OC)cc1C(N)=O [Compound 232] | > 10000 nM | 862 nM | 536 nM | 3240 nM
COc1ccc(NC(=O)[C@H](CCCCN)NC(=O)c2cc(NC(=O)[C@H](CCCCN)NC(=O)c3cc(NC(=O)[C@H](CCCCN)NC(=O)c4cc(NC(=O)[C@H](C)N)ccc4OC)ccc3OC)ccc2OC)cc1C(N)=O [Compound 233] | 3460 nM | 376 nM | 268 nM | 1590 nM
COc1ccc(NC(=O)[C@H](CCCNC(=N)N)NC(=O)c2cc(NC(=O)[C@@H](N)CCCNC(=N)N)ccc2OC)cc1C(=O)N[C@@H](CCCNC(=N)N)C(=O)Nc1ccc(OC)c(C(=O)N[C@@H](CCCNC(=N)N)C(=O)Nc2ccc(OC)c(C(=O)N3CCC[C@H]3C(N)=O)c2)c1 [Compound 234] | > 10000 nM | 1010 nM | 446 nM | > 10000 nM
CSc1ccc(NC(=O)[C@H](CCCNC(=N)N)NC(=O)c2cc(NC(=O)[C@H](CCCNC(=N)N)NC(=O)c3cc(NC(=O)[C@H](CCCNC(=N)N)NC(=O)c4cc(NC(=O)[C@@H](N)CCCNC(=N)N)ccc4SC)ccc3SC)ccc2SC)cc1C(N)=O [Compound 235] | 10700 nM | 497 nM | 433 nM | > 10000 nM
COc1ccc(NC(=O)[C@H](CCCCN)NC(=O)c2cc(NC(=O)[C@H](CCCCN)NC(=O)c3cc(NC(=O)[C@H](CCCCN)NC(=O)c4c[nH]c5ccccc45)ccc3OC)ccc2OC)cc1C(N)=O [Compound 238] | 1860 nM | 839 nM | 581 nM | 5340 nM
COc1ccc(NC(=O)[C@H](CCCCN)NC(=O)c2cc(NC(=O)[C@H](CCCCN)NC(=O)c3cc(NC(=O)[C@H](CCCCN)NC(=O)c4cc(NC(=O)[C@@H](N)CCCCN)cc(C(F)(F)F)c4)ccc3OC)ccc2OC)cc1C(N)=O [Compound 239] | 4000 nM | 241 nM | 124 nM | 4260 nM
COc1ccc(NC(=O)[C@H](CCCCN)NC(=O)c2cc(NC(=O)[C@H](CCCCN)NC(=O)c3cc(NC(=O)[C@H](CCCCN)NC(=O)c4cc(N)cc(C(F)(F)F)c4)ccc3OC)ccc2OC)cc1C(N)=O [Compound 240] | 2090 nM | 633 nM | 401 nM | > 10000 nM
COc1ccc(NC(=O)[C@H](CCCCN)NC(=O)c2cc(NC(=O)[C@H](CCCCN)NC(=O)c3cc(NC(=O)[C@H](CCCCN)NC(=O)c4ccc(NC(=O)[C@@H](N)CCCCN)cc4)ccc3OC)ccc2OC)cc1C(N)=O [Compound 241] | > 10000 nM | 431 nM | 167 nM | 5440 nM
COc1ccc(NC(=O)[C@H](CCCCN)NC(=O)c2cc(NC(=O)[C@H](CCCCN)NC(=O)c3cc(NC(=O)[C@H](CCCCN)NC(=O)c4cccc(N(C)C(=O)[C@@H](N)CCCCN)c4)ccc3OC)ccc2OC)cc1C(N)=O [Compound 242] | > 10000 nM | > 5000 nM | > 5000 nM | 1390 nM
CNc1cccc(C(=O)N[C@@H](CCCCN)C(=O)Nc2ccc(OC)c(C(=O)N[C@@H](CCCCN)C(=O)Nc3ccc(OC)c(C(=O)N[C@@H](CCCCN)C(=O)Nc4ccc(OC)c(C(N)=O)c4)c3)c2)c1 [Compound 243] | 5910 nM | 1150 nM | 752 nM | 2900 nM
COc1ccc(NC(=O)[C@H](CCCCN)NC(=O)c2cc(NC(=O)[C@H](CCCCN)NC(=O)c3cc(NC(=O)[C@H](CCCCN)NC(=O)c4ccc(NC(=O)[C@@H](N)CCCCN)cc4OC)ccc3OC)ccc2OC)cc1C(N)=O [Compound 244] | 4710 nM | 229 nM | 113 nM | 1460 nM
COc1ccc(NC(=O)[C@H](CCCCN)NC(=O)c2cc(NC(=O)[C@H](CCCCN)NC(=O)c3cc(NC(=O)[C@H](CCCCN)NC(=O)c4cc(NC(=O)[C@@H](N)CCCCN)ccc4SC)ccc3OC)ccc2OC)cc1C(N)=O [Compound 245] | 4010 nM and 3190 nM | 256 nM and 224 nM | 118 nM and 125 nM | 1310 nM and 1460 nM
COc1ccc(NC(=O)[C@H](CCCCN)NC(=O)c2cc(NC(=O)[C@H](CCCCN)NC(=O)c3cc(NC(=O)[C@H](CCCCN)NC(=O)c4cnc(N)s4)ccc3OC)ccc2OC)cc1C(N)=O [Compound 247] | > 10000 nM | 3140 nM | 1350 nM | 2570 nM
COc1ccc(NC(=O)[C@H](CCCCN)NC(=O)c2cc(NC(=O)[C@H](CCCCN)NC(=O)c3cc(NC(=O)[C@H](CCCCN)NC(=O)c4cc(C(=O)NCCCCCN)c(OC)cc4OC)ccc3OC)ccc2OC)cc1C(N)=O [Compound 248] | 1840 nM | 208 nM | 158 nM | 2080 nM
COC(=O)c1cc(NC(=O)[C@H](CCCCN)NC(=O)c2cc(NC(=O)[C@H](CCCCN)NC(=O)c3cc(NC(=O)[C@H](CCCCN)NC(=O)c4cc(NC(=O)[C@@H](N)CCCCN)ccc4OC)ccc3OC)ccc2OC)ccc1OC [Compound 249] | 10600 nM | 466 nM | 215 nM | 1420 nM
COc1ccc(NC(=O)[C@H](CCCCN)NC(=O)c2cc(NC(=O)[C@H](CCCCN)NC(=O)c3cc(NC(=O)[C@H](CCCCN)NC(=O)c4cc(NC(=O)[C@@H](N)CCCCN)ccc4OC)ccc3SC)ccc2OC)cc1C(N)=O [Compound 251] | > 10000 nM | > 5000 nM | > 5000 nM | > 10000 nM
COc1ccc(NC(=O)[C@H](CCCCN)NC(=O)c2cc(NC(=O)[C@H](CCCCN)NC(=O)c3cc(NC(=O)[C@H](CCCCN)NC(=O)c4cc(NC(=O)[C@@H](N)CCCCN)ccc4OC)ccc3OC)ccc2SC)cc1C(N)=O [Compound 252] | > 10000 nM | > 5000 nM | > 5000 nM | > 10000 nM
COc1ccc(NC(=O)[C@H](CCCCN)NC(=O)c2cc(NC(=O)[C@@H](N)CCCCN)ccc2OC)cc1C(=O)N[C@@H](CCCCN)C(=O)Nc1ccc(OC)c(C(=O)N[C@@H](CCCCN)C(=O)Nc2ccc(SC)c(C(N)=O)c2)c1 [Compound 253] | > 10000 nM | 1070 nM | 472 nM | 1660 nM
COc1ccc(NC(=O)[C@@H](CCCNC(=N)N)NC(=O)c2cc(NC(=O)[C@@H](CCCNC(N)=O)NC(=O)c3cc(NC(=O)[C@@H](CCCNC(=N)N)NC(=O)c4cc(NC(=O)[C@H](N)CCCNC(=N)N)ccc4OC)ccc3OC)ccc2OC)cc1C(N)=O [Compound 254] | 448 nM | 93 nM | 97 nM | 1640 nM
COc1ccc(NC(=O)[C@@H](CCCNC(N)=O)NC(=O)c2cc(NC(=O)[C@@H](CCCNC(=N)N)NC(=O)c3cc(NC(=O)[C@@H](CCCNC(=N)N)NC(=O)c4cc(NC(=O)[C@H](N)CCCNC(=N)N)ccc4OC)ccc3OC)ccc2OC)cc1C(N)=O [Compound 255] | 473 nM | 114 nM | 119 nM | 1720 nM
COc1ccc(NC(=O)[C@H](CCCCN)NC(=O)c2cc(NC(=O)[C@H](CCCCN)NC(=O)c3cc(NC(=O)[C@H](CCCCN)NC(=O)c4cc(NC(=O)[C@@H](N)CCCNC(N)=O)ccc4OC)ccc3OC)ccc2OC)cc1C(N)=O [Compound 256] | 2500 nM | 233 nM | 151 nM | 1450 nM
COc1ccc(NC(=O)[C@H](CCCCN)NC(=O)c2cc(NC(=O)[C@H](CCCCN)NC(=O)c3cc(NC(=O)[C@H](CCCNC(N)=O)NC(=O)c4cc(NC(=O)[C@@H](N)CCCCN)ccc4OC)ccc3OC)ccc2OC)cc1C(N)=O [Compound 257] | 1450 nM | 205 nM | 130 nM | 1330 nM
COc1ccc(NC(=O)[C@H](CCCCN)NC(=O)c2cc(NC(=O)[C@H](CCCNC(N)=O)NC(=O)c3cc(NC(=O)[C@H](CCCCN)NC(=O)c4cc(NC(=O)[C@@H](N)CCCCN)ccc4OC)ccc3OC)ccc2OC)cc1C(N)=O [Compound 258] | 1540 nM | 198 nM | 132 nM | 1520 nM
